Measured values as given in ChEMBL document CHEMBL1201862, “PubChem BioAssay data set” (2004).
Activity calls are given as the source filed them.

Legend:
Caspase-6 = target: T1, Caspase-6 (Homo sapiens, UniProt P55212); experiment: inhibition of CASP6 peptide cleavage – biochemical, VEID-R110 fluorescence, cherry-pick, dose response (AID 720632)
T1 sequence (P55212 whole entry): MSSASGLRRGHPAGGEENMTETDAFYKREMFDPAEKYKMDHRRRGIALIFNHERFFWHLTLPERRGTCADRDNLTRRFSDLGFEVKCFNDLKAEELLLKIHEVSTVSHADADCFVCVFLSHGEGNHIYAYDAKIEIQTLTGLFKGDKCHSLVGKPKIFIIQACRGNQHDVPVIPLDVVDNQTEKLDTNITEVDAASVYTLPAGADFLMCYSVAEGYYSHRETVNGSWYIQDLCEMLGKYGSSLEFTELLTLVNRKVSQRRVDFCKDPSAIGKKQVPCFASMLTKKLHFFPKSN

[1] = target: T2, Short transient receptor potential channel 4 (Mus musculus, UniProt Q9QUQ5); experiment: calcium entry via TRPC4 opening agents – cell-based, HEK293 TRPC4/mu-opioid, Fluo-4 calcium, dose response (AID 434937); type: functional
T2 sequence (Q9QUQ5 whole entry): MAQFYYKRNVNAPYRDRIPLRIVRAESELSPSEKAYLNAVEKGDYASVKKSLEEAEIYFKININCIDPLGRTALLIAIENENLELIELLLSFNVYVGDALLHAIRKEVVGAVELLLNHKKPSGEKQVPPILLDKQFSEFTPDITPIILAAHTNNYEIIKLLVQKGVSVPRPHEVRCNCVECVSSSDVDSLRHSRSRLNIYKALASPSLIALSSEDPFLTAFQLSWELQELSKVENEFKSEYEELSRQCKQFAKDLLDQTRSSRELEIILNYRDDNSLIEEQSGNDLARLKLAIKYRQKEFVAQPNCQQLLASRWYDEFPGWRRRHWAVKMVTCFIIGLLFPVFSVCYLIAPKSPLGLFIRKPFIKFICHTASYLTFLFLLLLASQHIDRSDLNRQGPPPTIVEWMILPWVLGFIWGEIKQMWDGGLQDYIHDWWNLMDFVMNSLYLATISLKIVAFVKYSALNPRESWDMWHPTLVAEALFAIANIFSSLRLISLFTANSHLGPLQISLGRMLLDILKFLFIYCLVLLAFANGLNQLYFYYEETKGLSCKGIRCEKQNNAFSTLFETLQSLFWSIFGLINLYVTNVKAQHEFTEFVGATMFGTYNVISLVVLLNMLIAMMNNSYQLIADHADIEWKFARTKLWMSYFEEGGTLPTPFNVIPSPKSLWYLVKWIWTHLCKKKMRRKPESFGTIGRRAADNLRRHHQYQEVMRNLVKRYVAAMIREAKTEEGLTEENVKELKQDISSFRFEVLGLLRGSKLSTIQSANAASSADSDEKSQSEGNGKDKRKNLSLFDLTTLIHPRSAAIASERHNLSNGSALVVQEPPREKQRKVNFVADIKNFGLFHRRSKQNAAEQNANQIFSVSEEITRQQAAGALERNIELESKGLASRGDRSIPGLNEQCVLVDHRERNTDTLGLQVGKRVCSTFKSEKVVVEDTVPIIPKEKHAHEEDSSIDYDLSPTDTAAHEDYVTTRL

Cytochrome P450 3A4 = Cytochrome P450 3A4 (Homo sapiens, UniProt P08684); conditions: Potency;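 further: confirmatory qHTS run detecting inhibitors and substrates of CYP3A4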
Cytochrome P450 3A4, sequence (P08684 whole entry): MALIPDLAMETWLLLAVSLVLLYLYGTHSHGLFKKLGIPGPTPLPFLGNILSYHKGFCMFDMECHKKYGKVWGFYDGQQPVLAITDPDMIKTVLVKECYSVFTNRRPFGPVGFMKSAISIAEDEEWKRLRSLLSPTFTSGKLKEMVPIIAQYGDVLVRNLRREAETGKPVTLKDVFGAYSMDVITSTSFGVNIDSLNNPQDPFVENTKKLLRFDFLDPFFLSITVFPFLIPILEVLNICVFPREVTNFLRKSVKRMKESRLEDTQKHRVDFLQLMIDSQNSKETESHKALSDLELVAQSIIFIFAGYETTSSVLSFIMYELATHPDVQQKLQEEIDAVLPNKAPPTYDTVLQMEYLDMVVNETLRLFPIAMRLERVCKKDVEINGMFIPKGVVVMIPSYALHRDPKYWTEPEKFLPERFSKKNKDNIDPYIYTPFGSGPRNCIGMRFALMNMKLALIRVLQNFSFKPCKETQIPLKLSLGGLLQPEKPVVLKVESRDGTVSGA

[2] = NIH-3T3 fibroblast cytotoxicity, dose response, cytotoxicity control, cell-based, fluorescence, Alamar Blue, secondary assay (AID 2327); type: functional;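 further: NIH-3T3 mouse fibroblasts cultured with fluconazole at 8 µg/mL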
[3] = THP-1 cell cytotoxicity, dose response, cytotoxicity control for non-replicating M. tuberculosis project (AID 489025); type: functional
cells = type: functional
Genome polyprotein = Genome polyprotein (dengue virus type 2, UniProt P29990); experiment: flavivirus cap methylation enzyme inhibition – biochemical, confirmation dose response, primary screen (AID 588689); type: functional
Genome polyprotein, sequence (P29990 2492-3391 limits assumed): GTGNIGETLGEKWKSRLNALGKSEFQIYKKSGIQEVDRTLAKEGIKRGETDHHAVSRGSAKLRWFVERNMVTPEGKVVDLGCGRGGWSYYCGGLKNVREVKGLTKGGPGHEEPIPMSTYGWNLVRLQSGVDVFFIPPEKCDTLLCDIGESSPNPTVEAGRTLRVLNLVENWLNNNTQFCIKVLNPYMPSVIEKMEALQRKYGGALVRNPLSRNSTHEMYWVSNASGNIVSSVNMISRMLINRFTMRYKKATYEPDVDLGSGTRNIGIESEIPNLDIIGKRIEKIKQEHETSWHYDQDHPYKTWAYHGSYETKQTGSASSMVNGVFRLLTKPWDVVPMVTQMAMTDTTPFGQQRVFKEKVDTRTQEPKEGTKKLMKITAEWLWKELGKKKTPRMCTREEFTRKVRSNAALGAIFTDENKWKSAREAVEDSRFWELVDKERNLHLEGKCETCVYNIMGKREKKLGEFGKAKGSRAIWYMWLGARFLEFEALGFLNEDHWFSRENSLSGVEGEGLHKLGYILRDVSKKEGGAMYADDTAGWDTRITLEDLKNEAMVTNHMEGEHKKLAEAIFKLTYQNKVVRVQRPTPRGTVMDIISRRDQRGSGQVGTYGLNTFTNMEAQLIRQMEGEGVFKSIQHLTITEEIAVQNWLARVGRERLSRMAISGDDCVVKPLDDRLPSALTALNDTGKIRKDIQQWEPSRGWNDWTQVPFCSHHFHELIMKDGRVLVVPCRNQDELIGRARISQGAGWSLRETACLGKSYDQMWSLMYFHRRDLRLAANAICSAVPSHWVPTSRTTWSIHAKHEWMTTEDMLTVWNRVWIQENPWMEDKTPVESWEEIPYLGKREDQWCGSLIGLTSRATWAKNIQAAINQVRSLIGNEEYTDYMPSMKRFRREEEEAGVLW

[4] = Luminescence Cell-Based Dose Confirmation HTS to Identify Activators of 5'UTR Stem-Loop Driven Alpha-Synuclein mRNA Translation in H4 Neuroglioblastoma Cells. [Related pubchem assays: 1829 (Project Summary), 1814 (Primary HTS)]; type: functional
[5] = Luminescence Cell-Based Dose Response HTS to Identify Activators of Luciferase Translation or Activity in H4 […] Cells. [Related pubchem assays: 1829 (Project Summary), 1814 (Primary HTS)]; type: functional
H4 = experiment: Luminescence Cell-Based Dose Response HTS to Identify Activators of 5'UTR Stem-Loop Driven Prion Protein mRNA Translation in H4 Neuroglioblastoma Cells. [Related pubchem assays: 1829 (Project Summary), 1814 (Primary HTS)]; type: functional; conditions: Homo sapiens
[6] = target: T3, RNA-binding protein pos-1 (Caenorhabditis elegans, UniProt G5EF15); experiment: disruptors of C. elegans POS-1 RNA interaction – biochemical, fluorescence polarization, dose response (AID 1964);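 further: purified POS-1 fused to maltose binding protein made in E. coli; potency of compounds blocking POS-1 binding to fluorescent RNA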
T3 sequence (G5EF15 whole entry): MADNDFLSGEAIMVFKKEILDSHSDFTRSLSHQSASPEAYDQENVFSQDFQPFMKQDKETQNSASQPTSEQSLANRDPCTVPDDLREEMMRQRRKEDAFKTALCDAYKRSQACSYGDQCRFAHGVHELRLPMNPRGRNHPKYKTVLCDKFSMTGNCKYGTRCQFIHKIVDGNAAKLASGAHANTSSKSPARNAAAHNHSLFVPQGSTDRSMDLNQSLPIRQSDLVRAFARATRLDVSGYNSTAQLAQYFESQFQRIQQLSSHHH

[7] = target: T4, Zinc finger protein mex-5 (Caenorhabditis elegans, UniProt Q9XUB2); experiment: potency of MEX-5 RNA-binding blockers – biochemical, C. elegans, fluorescence polarization, dose response (AID 1960)
T4 sequence (Q9XUB2 whole entry): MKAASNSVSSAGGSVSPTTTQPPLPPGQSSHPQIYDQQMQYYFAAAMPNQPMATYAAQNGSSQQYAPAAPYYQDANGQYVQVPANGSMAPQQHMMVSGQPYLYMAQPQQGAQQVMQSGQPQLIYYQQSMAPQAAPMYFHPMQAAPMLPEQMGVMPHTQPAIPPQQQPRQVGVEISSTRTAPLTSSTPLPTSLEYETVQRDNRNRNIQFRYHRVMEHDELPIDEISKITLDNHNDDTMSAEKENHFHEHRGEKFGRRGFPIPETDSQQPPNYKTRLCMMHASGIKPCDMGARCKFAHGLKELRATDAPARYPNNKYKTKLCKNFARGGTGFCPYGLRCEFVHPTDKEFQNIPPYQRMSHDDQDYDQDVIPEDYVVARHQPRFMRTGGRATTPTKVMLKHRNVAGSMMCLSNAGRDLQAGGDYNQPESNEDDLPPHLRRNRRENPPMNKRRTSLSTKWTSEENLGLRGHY

[8] = target: T5, Polyadenylate-binding protein 1 (Homo sapiens, UniProt P11940); experiment: MLLE binding blockers, Cy5 peptide tracer – biochemical, fluorescence polarization, Cy5-PAM2 peptide, secondary, miRNA deadenylation inhibitor project, dose response (AID 602260); type: functional; conditions: read-out: IC50_Mean
T5 sequence (P11940 whole entry, the tested form may be a part): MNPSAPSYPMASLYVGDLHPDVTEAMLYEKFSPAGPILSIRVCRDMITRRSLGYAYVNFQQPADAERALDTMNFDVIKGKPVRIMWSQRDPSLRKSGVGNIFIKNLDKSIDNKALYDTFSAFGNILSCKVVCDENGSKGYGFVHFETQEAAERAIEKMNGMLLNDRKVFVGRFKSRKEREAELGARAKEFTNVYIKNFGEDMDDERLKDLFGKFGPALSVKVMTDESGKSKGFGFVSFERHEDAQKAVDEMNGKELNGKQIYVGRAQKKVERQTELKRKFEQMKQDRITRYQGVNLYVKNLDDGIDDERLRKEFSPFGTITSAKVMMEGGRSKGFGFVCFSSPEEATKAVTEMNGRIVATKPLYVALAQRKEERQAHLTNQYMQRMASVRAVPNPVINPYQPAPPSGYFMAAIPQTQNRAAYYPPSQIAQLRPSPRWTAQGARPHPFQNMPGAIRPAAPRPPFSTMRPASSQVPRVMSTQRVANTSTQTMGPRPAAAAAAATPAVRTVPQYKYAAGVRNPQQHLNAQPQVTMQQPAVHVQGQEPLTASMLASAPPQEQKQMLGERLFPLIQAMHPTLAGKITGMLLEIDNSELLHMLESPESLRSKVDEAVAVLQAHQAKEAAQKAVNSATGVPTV

[9] = target: T5, Polyadenylate-binding protein 1; experiment: MLLE domain peptide-binding blockers, IC50 – biochemical, fluorescence polarization, FITC-PAM2 peptide, dose response (AID 602259); type: functional; conditions: read-out: IC50_Mean
Protein skinhead-1 = target: T6, Protein skinhead-1 (Caenorhabditis elegans, UniProt P34707); type: functional
T6 sequence (P34707 whole entry): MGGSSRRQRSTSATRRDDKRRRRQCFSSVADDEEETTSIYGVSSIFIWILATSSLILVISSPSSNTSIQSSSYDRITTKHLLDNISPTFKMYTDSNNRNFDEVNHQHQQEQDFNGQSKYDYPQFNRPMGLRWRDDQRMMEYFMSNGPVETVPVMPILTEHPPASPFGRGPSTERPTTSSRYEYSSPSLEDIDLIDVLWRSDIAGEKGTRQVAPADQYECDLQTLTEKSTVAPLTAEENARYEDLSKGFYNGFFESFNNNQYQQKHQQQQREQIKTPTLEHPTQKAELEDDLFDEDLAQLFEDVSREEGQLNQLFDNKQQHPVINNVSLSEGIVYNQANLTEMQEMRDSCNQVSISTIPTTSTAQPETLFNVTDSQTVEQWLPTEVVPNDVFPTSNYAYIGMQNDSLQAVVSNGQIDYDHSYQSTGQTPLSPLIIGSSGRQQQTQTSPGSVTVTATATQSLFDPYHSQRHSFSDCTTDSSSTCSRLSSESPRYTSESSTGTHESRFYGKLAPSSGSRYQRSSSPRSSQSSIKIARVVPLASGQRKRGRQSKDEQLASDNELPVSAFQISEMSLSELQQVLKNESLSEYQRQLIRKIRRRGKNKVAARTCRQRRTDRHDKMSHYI

Cytochrome P450 1A2 = target: T7, Cytochrome P450 1A2 (Homo sapiens, UniProt P05177);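 further: PubChem cytochrome P450 panel assay, CYP1A2 panel member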
T7 sequence (P05177 whole entry): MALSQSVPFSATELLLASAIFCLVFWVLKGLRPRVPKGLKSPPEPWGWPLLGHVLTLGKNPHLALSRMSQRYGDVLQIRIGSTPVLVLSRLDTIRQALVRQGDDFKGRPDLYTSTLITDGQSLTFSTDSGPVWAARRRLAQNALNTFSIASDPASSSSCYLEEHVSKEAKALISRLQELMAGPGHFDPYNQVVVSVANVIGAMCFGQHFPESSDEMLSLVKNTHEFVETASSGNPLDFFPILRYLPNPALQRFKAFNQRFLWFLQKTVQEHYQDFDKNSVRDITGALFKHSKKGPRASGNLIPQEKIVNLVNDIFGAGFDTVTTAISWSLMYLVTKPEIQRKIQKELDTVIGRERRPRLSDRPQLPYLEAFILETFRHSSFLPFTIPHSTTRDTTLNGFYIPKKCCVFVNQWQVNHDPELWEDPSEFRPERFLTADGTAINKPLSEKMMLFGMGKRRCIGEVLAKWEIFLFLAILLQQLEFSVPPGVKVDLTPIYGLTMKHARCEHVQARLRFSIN

Cytochrome P450 2C9 = Cytochrome P450 2C9 (Homo sapiens, UniProt P11712)
Cytochrome P450 2C9, sequence (P11712 whole entry): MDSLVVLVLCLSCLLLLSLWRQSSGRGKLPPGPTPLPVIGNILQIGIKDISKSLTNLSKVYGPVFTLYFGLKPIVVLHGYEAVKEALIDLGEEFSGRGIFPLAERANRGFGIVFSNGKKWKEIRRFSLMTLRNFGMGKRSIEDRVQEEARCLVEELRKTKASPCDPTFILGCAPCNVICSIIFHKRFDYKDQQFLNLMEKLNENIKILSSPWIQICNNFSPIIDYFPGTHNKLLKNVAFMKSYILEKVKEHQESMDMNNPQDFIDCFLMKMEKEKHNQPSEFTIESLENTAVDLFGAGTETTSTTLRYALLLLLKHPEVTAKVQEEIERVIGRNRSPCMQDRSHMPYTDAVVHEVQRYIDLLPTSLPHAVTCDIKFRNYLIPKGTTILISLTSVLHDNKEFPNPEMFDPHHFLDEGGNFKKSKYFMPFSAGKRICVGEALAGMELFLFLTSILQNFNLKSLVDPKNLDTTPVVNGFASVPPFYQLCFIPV

CC(=O)N(C)c1ccc(NC(=O)Cc2cccs2)cc1
AC50 (Caspase-6): 31.8 µM (active)

Cc1csc2c(N3CCN(C(=O)Nc4ccccc4)CC3)ncnc12
EC50 [1]: 1.68 µM (active)

CN(C)C(CNC(=O)/C=C/c1cccc(Cl)c1)c1ccccc1 (stereo unspecified)
EC50 [1]: 0.133 µM (active)

O=C(O)C/C(=C\c1cc(Cl)c2c(c1)OCO2)c1nc2ccccc2s1
AC50 (Caspase-6): 7.56 µM (active)

c1ccc(-c2ccc(CN3C[C@@H]4C(c5ccccc5)C5(c6cccnc6)CC4(C5)[C@H]3c3ccccc3)cc2)cc1 (stereo partly specified)
AC50 (Cytochrome P450 3A4): 15.8 µM (inconclusive)

O=C1CCC/C(=N/Nc2ccc(Cl)cc2)C1
EC50 [2]: > 150 µM (inactive) | CC50 [3]: > 40 µM (active) | IC50 (cells): 16.9 µM (active) | IC50 (Genome polyprotein): 93.3 µM (active)

COc1cc2c(Cc3c4c5c(cc(OC)c(OC)c5c5c(OC)c(OC)ccc35)CCN4C)c3c4c(cc(OC)c(OC)c4c2cc1OC)CCN3C
AC50 (Cytochrome P450 3A4): 3.16 µM (inconclusive)

CSc1nc(O)c(C(c2ccc(OC(C)C)cc2)c2c(O)nc(SC)nc2O)c(O)n1
IC50 (Genome polyprotein): 32.9 µM (active)

COCCn1nnnc1C(c1cc2ccc(OC)cc2nc1O)N1CCN(C2CCCCC2)CC1 (stereo unspecified)
EC50 [1]: 3.76 µM (active)

Cc1ccc(NC(=S)NC2CC3CCC(C2)N3Cc2ccco2)c(C)c1 (stereo unspecified)
EC50 [1]: 5.96 µM (active)

CCCCN(CC)CCCNC(=O)c1csc2c1CCCCC2
EC50 [1]: 1.19 µM (active)

COc1cc(/C=C2/C(=N)N3C(c4ccccc4)=CSC3=NC2=O)ccc1OCC(=O)O
EC50 [4]: 19.6 µM (active) | EC50 [5]: 12.7 µM (active) | EC50 (H4): > 120 µM (not active) | IC50 (Genome polyprotein): > 100 µM (active)

O=C(O)CCC(=O)NCc1ccc2[nH]c3c(c2c1)CCCC3
EC50 [6]: 82.1 µM (active) | EC50 [7]: 112 µM (active) | AC50 (Caspase-6): 25.6 µM (active)

Cc1cc[n+](-c2[n-]c(=O)sc2C=NNC(=O)c2ccncc2)cc1
IC50 (Genome polyprotein): 83.8 µM (active) | IC50 [8]: > 66 µM (inactive) | IC50 [9]: 36 µM (inactive)

COC(=O)CNC(=O)[C@@]1(C)C=C[C@@H](Cc2ccccc2)N1C(C)=O
AC50 (Cytochrome P450 3A4): 20 µM (inconclusive)

COc1ccc(-c2ccccc2C2NC(C(=O)O)CCC2C)cc1 (stereo unspecified)
AC50 (Cytochrome P450 3A4): 5.01 µM (inconclusive)

COc1ccc(/C=C(\C#N)C(=O)NCC2CCCO2)cc1OC (stereo unspecified)
EC50 [6]: > 300 µM (not active) | EC50 [7]: > 300 µM (not active) | IC50 (Protein skinhead-1): > 100 µM (inactive) | AC50 (Cytochrome P450 1A2): 22.4 µM (inconclusive) | AC50 (Cytochrome P450 2C9): inconclusive

CC1=NN(c2ccc(Br)cc2)C(=O)/C1=C/c1ccc(-c2ccccc2C(=O)O)o1
IC50 (Genome polyprotein): 30 µM (active)

Cc1c(N=C=O)cccc1N=C=O
AC50 (Cytochrome P450 3A4): 15.8 µM (inconclusive)

O=C1C=C2C=CC3C[C@@]2(O1)C1CCCCN31 (stereo partly specified)
AC50 (Cytochrome P450 3A4): 31.6 µM (inconclusive)

O=Nc1ccc(Nc2ccccc2)cc1
AC50 (Cytochrome P450 3A4): 20 µM (inconclusive)

CN(C)c1ccc2c(c1)[C@@H]1C[C@@H](CC(=O)N3CCOCC3)O[C@@H](CO)[C@@H]1O2
AC50 (Caspase-6): 42.4 µM (active)

CSc1ccccc1NC(=O)CN(C)C(=O)COc1cccc2cccnc12
AC50 (Caspase-6): 29.5 µM (active)

Cc1nc(NC2CCCCC2)c2nc(-c3ccccc3)n(CCCN(C)C)c2n1
AC50 (Cytochrome P450 3A4): 20 µM (inconclusive)

COc1cccc(C(=O)OC2CCCN(C)C2)c1 (stereo unspecified)
EC50 [1]: 0.376 µM (active)

CCOc1cc(OCC)c(C(C)=O)cc1OCC
AC50 (Cytochrome P450 3A4): 15.8 µM (inconclusive)

COC(=O)CC1[C@@]2(C)C[C@]34OC5(C)OC6(C7CC(=O)OC(c8ccoc8)[C@]7(C)CCC6(O5)[C@]13C)C(OC(C)=O)[C@]4(OC(C)=O)C2OC(C)=O (stereo partly specified)
AC50 (Cytochrome P450 3A4): 20 µM (inconclusive)
